This assay relates to patients diagnosed as acute attack of vertigo. The settings on record: human, in vivo.

`OC(CCCN1CCCCC1)(c1ccccc1)c1ccccc1` [Diphenidol]: the “Total effective (patients effective/sample)” value is on record as 19/28 and the Total effective percentage is reported as 67.9%.

These data come from US20040097737A1 (priority 2001, published 2004).
